Experimental data published in patent publication US20130274705A1, “FEEDBACK-BASED DIURETIC OR NATRIURETIC MOLECULE ADMINISTRATION” (MEDTRONIC, INC., priority 2012, published 2013).

Assays:
[1] = system: anesthetized, mechanically ventilated male dog; test: NICOM study: cardiac data in an anesthetized, mechanically ventilated dog; assay type: in vivo; details: measured by NICOM monitor
From the text: A noninvasive cardiac output monitoring (NICOM) monitor was utilized to measure cardiac data from an anesthetized, mechanically ventilated, 54 lb, 42 inch (nose to base of tail) male dog. FIGS. 20-24 depict the cardiac data measured by the NICOM monitor.
The gap in data at 11:20 indicates electrocautery interference when the chest of the dog was opened. FIG. 21 depicts the data in response to sequential fluid boluses. An approximate 20% increase in CO was detected reflecting changes in both SV and HR. […] FIG. 23 depicts the cardiodepressant effect of the ultra-short beta-blocker esmolol given after dobutamine and recalibration. […] FIG. 24 depicts the response to increasing blood pressure with phenylephrine followed by decreasing blood pressure with sodium nitroprusside (SNP). Prior to this intervention, the dog chest had been opened and commercially available flow monitors had been implanted on the pulmonary artery (PA). Baseline PA flow data, which was measured by the implantable monitors, was 2.7 L/min. The PA flow data measured by the NICOM monitor was 2.812 L/min.

[2] = system: canine model high-rate paced (HRP) to simulate HF; test: Pharmacodynamic study of VD by continuous subcutaneous infusion in high-rate paced canine heart failure model; assay type: in vivo; details: SQ infusion 100 ng/kg·min
Protocol: FIGS. 16 and 17 show the mean right atrial pressure and the mean pulmonary capillary wedge pressure, respectively, for control and experimental groups of a canine model high-rate paced (HRP). A pharmaceutical formulation of VD was prepared in a Tris buffer. 16.0 g glycerol, 6.05 g tris-(hydroxymethyl)-aminomethane (“Tris”), 2.50 g meta cresol were mixed in a 1.00 L volumetric flask. Approximately 900 mL nanopure water was added to the volumetric flask and the mixture was magnetically stirred to reach complete dissolution. 4 normal hydrochloric acid was used to adjust pH to 7.3 at 25° C. Then, the flask was filled to 1 L mark with nanopure water. The pH was rechecked and verified to be 7.3 at 25° C. The pH 7.3 Tris buffer was stored at 2-8° C. until use.
Lyophilized VD peptide (Bachem) was weighted into a glass vial and dissolved into a known volume of the Tris buffer to a concentration between 1 mg/mL and 10 mg/mL. The VD peptide was dissolved by gentle mixing and the solution was allowed to rest for between 20 and 30 minutes. The pH of the solution was checked and adjusted to 7.3 with 0.1 N sodium hydroxide. The solution was filtered through a 0.22 micron sterile filter into a sterile glass vial and stored at 2 to 8° C. until use.
The pharmacodynamic effects of VD delivered by subcutaneous infusion were investigated in a canine model high-rate paced (HRP) to a heart rate of 240 bpm (ventricular pacing) over a period of 10 days to simulate HF. The canines were divided into a control group and an experimental group. The control group received a continuous subcutaneous infusion of the Tris buffer without VD over the course of the 10 day period. The experimental group received continuous subcutaneous infusion of VD dissolved in Tris buffer at a dosing rate of 100 ng/kg·min based upon the body weight of individual canines.
Seven days prior to the beginning of HRP (Day −7), all dogs were instrumented for ventricular pacing with an IPG (implantable pulse generator) including an RA (right atrium) and RV (right ventricle) lead, and a DSI ([…]) device in the femoral artery for arterial blood pressure monitoring. Glomerular filtration rate (GFR) was measured by iohexol clearance on the day before the beginning of HRP (Day −1). On Day 0, high-rate pacing was initiated at a rate of 240 BPM (beats per minute) and maintained continuously over the course of a 10 day period (Days 0-10). After HRP was started on Day 0, urine, blood, and hemodynamic data was collected from conscious animals to serve as a baseline. […]

[3] = system: Dahl/SS rats; test: Pharmacodynamic study of VD in Dahl/SS rats on 4% salt diet (blood pressure); assay type: in vivo, rat; details: for blood pressure compared with 4% vehicle control group at week 3: week 3, p-value<0.05
Protocol: The pharmacodynamic effects of VD were investigated in a rat model. Forty male Dahl/SS rats were shipped to the animal facilities at PhysioGenix, Inc. (Milwaukee, Wis.). The rats were maintained on a low-salt diet and allowed to acclimate. After acclimation, animals had baseline parameters collected while on the low-salt diet. Baseline tail-cuff blood pressures and echocardiograms were measured. Baseline urine was collected for analysis of protein and albumin. Animals were then randomly assigned to one of 4 groups (10 animals per group):
1. Vehicle Control; low-salt diet, n=10 2. Vehicle Control; 4% salt diet, n=10 3. Vessel dilator, 100 ng/kg/min, 4% salt diet, n=10 4. Vessel dilator, 300 ng/kg/min, 4% salt diet, n=10
Lyophilized VD peptide (Bachem) was reconstituted in a Tris buffer having the same composition as the Tris buffer used in Example 7. The vehicle control groups were infused with a citrate-mannitol-saline buffer (0.66 mg/mL citric acid, 6.43 mg/mL sodium citrate, 40 mg/mL mannitol, 9 mg/mL NaCl). The animals were on a Teklad 7034 (low-salt) diet or Dyets AIN-76A 4% salt diet, as indicated, throughout a 6 week course of the study and had free access to water.
Alzet® minipumps (Durect, Corp.) were surgically implanted on Days 1, 15, and 29 of the study to maintain continuous vehicle or drug dispensing at the desired dose for a total period of 6 weeks. Urine was collected at baseline, 2, 4 and 6 weeks after the initiation of the treatment to assess proteinuria and albuminuria. After six weeks of treatment, the animals were then euthanized.

## CNC[C@H](O)c1cccc(O)c1 [Phenylephrine, phenylephrine]
[1]
  effect on cardiac output (CO): reduced CO
  effect on heart rate (HR): reflex slowing of the HR

## CC(CCc1ccc(O)cc1)NCCc1ccc(O)c(O)c1 (centres unmarked) [dobutamine]
[1]
  effect on cardiac output (CO): marked increase in CO

## COC(=O)CCc1ccc(OCC(O)CNC(C)C)cc1 (centres unmarked) [esmolol]
[1]
  effect on cardiac output (CO): marked decline in CO

## vessel dilator (EVVPPQVLSEPNEEAGAALSPLPEVPPWTGEVSPAQR; Vessel dilator; UniProt P01160 56-92, looked up) [VD, Natriuretic peptide of the ANP hormones; lyophilized VD peptide (Bachem) dissolved in Tris buffer]
[2]; Day 10, p-value<0.05
  increase in right atrial pressure compared with control group: significantly less than for the control group
[2]; HRP 240 bpm, 10 days
  change in mean right atrial pressure from Day 0 to Day 10: increased slightly
[2]; alpha 0.05, two-way repeated measures ANOVA
  difference in pulmonary capillary wedge pressure between control and experimental group on Day 10: does not appear to be statistically significant
[2]; versus control group
  extent of increase in pulmonary capillary wedge pressure from Day 0 to Day 10: smaller than that observed in the control group
[3]; high-dose VD 300 ng/kg/min SQ infusion
  blood pressure compared with vehicle control group on 4% salt diet: attenuated blood pressure
[3]; high-dose VD 300 ng/kg/min
  blood pressure compared with 4% vehicle control group at week 3: statistically significant decrease in blood pressure
  decrease in blood pressure compared with 4% vehicle control group at week 5: not as statistically significant
[3]; low-dose VD 100 ng/kg/min SQ infusion
  blood pressure compared with vehicle control group on 4% salt diet: attenuated blood pressure
[3]; low-dose VD 100 ng/kg/min
  blood pressure compared with 4% vehicle control group at week 3: statistically significant decrease in blood pressure
  decrease in blood pressure compared with 4% vehicle control group at week 5: not as statistically significant
